Two molecules from article PMC3743170 (Molecular Informatics, 2013) can be followed below.

The target of one data set is PI3Kα (Homo sapiens, UniProt P42336). The data set can be described thus: PI3Kα activity determination. The data set is classed as biochemical. Particulars: 10-dose IC50 determination (n=3), 10 µM ATP.
The next data set concerns the target T1, human M1 receptor (Homo sapiens, UniProt P11229).
T1 sequence (P11229 1-460): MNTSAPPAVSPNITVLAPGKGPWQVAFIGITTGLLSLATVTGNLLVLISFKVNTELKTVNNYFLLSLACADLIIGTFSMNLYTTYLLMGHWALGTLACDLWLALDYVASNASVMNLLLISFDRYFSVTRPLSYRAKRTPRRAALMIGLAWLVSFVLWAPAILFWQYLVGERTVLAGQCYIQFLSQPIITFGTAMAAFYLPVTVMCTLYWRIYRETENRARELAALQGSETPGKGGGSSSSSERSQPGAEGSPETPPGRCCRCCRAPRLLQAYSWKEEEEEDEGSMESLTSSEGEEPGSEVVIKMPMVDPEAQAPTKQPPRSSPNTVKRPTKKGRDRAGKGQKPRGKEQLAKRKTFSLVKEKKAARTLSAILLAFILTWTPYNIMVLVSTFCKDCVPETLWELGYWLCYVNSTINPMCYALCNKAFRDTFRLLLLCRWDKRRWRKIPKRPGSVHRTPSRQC
Nature of the data set: Cell-based functional M1 agonist assay.

The nature of data set [1]: Dynamic light scattering aggregation. The data set is classed as physicochemical. The following applies: aqueous solution with 1 % DMSO.

Chain of PI3Kα (P42336 whole entry): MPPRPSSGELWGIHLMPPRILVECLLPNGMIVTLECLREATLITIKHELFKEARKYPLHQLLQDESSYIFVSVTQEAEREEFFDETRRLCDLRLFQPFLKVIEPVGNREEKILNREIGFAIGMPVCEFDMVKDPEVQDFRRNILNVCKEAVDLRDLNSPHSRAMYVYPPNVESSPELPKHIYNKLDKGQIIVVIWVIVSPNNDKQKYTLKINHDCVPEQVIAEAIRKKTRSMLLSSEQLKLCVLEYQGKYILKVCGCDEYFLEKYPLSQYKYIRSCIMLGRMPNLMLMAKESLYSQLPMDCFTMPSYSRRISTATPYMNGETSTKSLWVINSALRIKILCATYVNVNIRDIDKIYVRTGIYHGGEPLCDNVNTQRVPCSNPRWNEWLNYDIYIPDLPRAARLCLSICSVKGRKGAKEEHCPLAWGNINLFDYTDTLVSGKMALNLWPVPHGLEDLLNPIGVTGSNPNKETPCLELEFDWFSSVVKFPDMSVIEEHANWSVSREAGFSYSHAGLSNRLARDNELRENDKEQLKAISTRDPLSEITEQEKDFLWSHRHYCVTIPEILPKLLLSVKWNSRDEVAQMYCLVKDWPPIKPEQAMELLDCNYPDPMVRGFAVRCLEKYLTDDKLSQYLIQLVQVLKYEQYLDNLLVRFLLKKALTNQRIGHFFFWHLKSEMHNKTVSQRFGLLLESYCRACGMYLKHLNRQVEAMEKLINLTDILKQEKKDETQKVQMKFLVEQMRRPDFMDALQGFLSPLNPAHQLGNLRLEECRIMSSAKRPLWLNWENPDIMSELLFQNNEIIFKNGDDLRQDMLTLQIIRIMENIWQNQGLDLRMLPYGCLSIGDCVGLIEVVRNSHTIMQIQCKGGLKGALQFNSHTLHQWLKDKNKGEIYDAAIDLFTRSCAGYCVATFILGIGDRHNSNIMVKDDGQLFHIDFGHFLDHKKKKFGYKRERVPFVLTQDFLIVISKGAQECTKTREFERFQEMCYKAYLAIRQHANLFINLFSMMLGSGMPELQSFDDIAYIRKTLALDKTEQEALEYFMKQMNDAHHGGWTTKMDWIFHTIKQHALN
Chain of PI3Kα (P27986 whole entry partner): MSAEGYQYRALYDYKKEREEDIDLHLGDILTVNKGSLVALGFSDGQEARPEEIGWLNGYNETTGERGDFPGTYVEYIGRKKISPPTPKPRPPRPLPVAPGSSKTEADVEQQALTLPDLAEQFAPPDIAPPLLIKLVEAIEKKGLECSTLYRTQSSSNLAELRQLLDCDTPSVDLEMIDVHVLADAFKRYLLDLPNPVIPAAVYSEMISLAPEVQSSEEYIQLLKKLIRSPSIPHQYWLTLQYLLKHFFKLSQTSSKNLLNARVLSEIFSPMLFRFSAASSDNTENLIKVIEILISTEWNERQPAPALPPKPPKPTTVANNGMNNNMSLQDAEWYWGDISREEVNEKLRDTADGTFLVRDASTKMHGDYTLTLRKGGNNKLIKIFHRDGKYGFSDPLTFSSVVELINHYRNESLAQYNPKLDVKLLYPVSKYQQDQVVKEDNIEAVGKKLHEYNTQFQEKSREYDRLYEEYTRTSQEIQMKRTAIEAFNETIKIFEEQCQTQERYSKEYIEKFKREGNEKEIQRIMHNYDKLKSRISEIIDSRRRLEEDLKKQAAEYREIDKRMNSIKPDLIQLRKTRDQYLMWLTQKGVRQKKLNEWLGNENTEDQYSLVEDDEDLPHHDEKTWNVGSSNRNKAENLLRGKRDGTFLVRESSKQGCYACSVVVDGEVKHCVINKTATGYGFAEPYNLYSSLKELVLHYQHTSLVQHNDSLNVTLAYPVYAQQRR

For `COC(=O)CNc1c(-c2ccc(OC)cc2OC)nc2ccccn12` [Compound 1, methyl 2-((2-(2,4-dimethoxyphenyl)imidazo[1,2-a]pyridin-3-yl)amino)acetate], at PI3Kα, the IC50 was found to be 131 µM.

For the molecule `COC(=O)c1ccn2c(NCCN3CCOCC3)c(-c3cccn3C)nc2c1` [Compound 2, methyl 2-(1-methyl-1H-pyrrol-2-yl)-3-((2-morpholinoethyl)amino)imidazo[1,2-a] pyridine-7-carboxylate], inhibition at PI3Kα was half-maximal at 230 ± 30 µM (IC50). The same molecule showed an EC50 at human M1 receptor of approximately 5 µM. Further, at human M1 receptor (compound concentration of 10 µM), the “M1 agonistic activity, % of the effect caused by 100 nM acetylcholine” value came to 34±5%. Further, the “concentrations at which aggregate particles were observable” value in data set [1] was 15.5 to 250 µM.

By IC50 is commonly meant the point on the concentration scale where inhibition reaches its midpoint. The low end stands for inhibition by little substance, the high end for a need for much substance. As usually defined, the EC50 is the concentration needed to bring the measured effect to its halfway point. A high value points to a less potent agent.
